How the values were obtained:
catalase = test: Catalase gene expression by Western blotting; assay type: cell-based; settings: 15 and 30 μM, particularly increased at 30 μM; human skin fibroblasts
Description: (§1) The antioxidant effects of indoleacetyl phenylalanine was also tested with respect to the production of antioxidant enzymes by means of differential gene expression in human skin fibroblasts. The experiment was conducted with respect to gene expression related to two major defense enzymes, Superoxide Dismutase (SOD) and catalase. […] Gene expression for both enzymes was stimulated at indoleacetyl phenylalanine concentrations of 15 and 30 μM.

skin fibroblasts [1] = test: t-butyl hydroperoxide (t-BHP) induced ROS activity; assay type: cell-based, human; settings: serum-free media
Description: (§2) The anti-oxidative action of indoleacetyl phenylalanine was tested against reactive oxygen species (ROS) using human skin fibroblast cultures. Total ROS generation in skin fibroblasts was measured using the fluorescent dye dichlorofluorescin diacetate (DCFDA) as a probe. DCFDA readily diffuses through cell membranes and is enzymatically hydrolyzed by intracellular esterase to become non-fluorescent dichlorofluorescin (DCFH), which is then oxidized by reactive species (oxidants) to highly fluorescent […] (DCF). Increased antioxidant activity within a cell is marked by a reduction in the fluorescent DCF.

Cu/ZnSOD = Cu/ZnSOD gene expression by Western blotting; assay type: cell-based; settings: 15 and 30 μM; human skin fibroblasts
Description: as §1

[2] = system: cultured human skin fibroblasts; test: RNS suppression, total nitrate plus nitrite (Nox) generation, Greiss assay; assay type: cell-based; settings: 60 μg/ml
Description: In addition to ROS activity, indoleacetyl phenylalanine was also tested against radical nitrogen species (RNS) in cultured human skin fibroblasts. To estimate suppression of RNS, total nitrate plus nitrite (Nox) generation was measured using the Greiss assay method. At a concentration of 60 μg/ml, indoleacetyl phenylalanine decreased RNS generation by 33% as compared to an untreated control.

[3] = system: human skin fibroblast cultures; test: Total ROS generation in skin fibroblasts, DCFDA fluorescent probe; assay type: cell-based
Description: as §2
(§3) Positive results were obtained with fibroblasts incubated in both serum-containing and serum-free media (serum proteins, e.g., albumin, can act as antioxidants and skew test results).

fibroblasts = test: Cell proliferation / cell viability, MTT method; assay type: cell-based
Description: Furthermore, to investigate the effects of indole derivatives on cell proliferation as a biological marker, cell viability was assayed using the MTT method.

skin fibroblasts [4] = test: Cell viability of skin fibroblasts during ROS test; assay type: cell-based, human
Description: as §3

fibroblast COX-2 enzymes = molecular target: T1, fibroblast COX-2 enzymes (Homo sapiens, UniProt P35354); test: Inhibition of fibroblast COX-2 enzymes; assay type: cell-based
T1 construct: endogenous in cells
T1 sequence (P35354 18-604): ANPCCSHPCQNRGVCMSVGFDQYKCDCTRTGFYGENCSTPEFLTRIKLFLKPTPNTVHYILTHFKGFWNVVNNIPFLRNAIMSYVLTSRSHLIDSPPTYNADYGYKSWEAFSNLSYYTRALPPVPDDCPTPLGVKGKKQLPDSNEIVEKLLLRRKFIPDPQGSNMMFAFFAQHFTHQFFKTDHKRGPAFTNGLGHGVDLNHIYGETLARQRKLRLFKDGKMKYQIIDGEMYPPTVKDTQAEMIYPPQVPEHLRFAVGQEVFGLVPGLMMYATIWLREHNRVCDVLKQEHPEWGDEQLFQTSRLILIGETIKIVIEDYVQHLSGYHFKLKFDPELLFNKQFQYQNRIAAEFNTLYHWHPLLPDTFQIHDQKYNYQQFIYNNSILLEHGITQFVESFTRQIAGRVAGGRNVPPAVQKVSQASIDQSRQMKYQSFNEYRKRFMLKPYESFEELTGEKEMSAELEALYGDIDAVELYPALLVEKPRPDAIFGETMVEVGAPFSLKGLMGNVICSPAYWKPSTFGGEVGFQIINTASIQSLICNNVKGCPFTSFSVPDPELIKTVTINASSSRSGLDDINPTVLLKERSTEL

[5] = system: nitric oxide synthase (iNOS); test: iNOS suppression, native and activated states; assay type: cell-based; settings: 3-12 μM
Description: Following previous leads on indoleacetyl phenylalanine's finding as a potent anti-free radical substance, additional experimental evidence was sought to strengthen the earlier findings. Focus at this time was placed on nitric oxide synthase (iNOS), which is the key enzyme for generating a destructive oxidant, nitric oxide. Since this enzyme existed in native and activated states, it was pertinent to check both the enzyme activities to ascertain the inhibitory action of indoleacetyl phenylalanine.

## O=C(Cc1c[nH]c2ccccc12)N[C@@H](Cc1ccccc1)C(=O)O [indoleacetyl phenylalanine]
catalase
  gene expression for production of catalase (protein amount): increased gene expression
Skin fibroblasts [1]
  antioxidant activity against t-BHP induced ROS activity: showed antioxidant activity
Cu/ZnSOD
  gene expression for production of Cu/ZnSOD (protein amount): increased gene expression
[2]
  decrease of RNS generation compared to untreated control: 33%
[3]; 10% serum media, 15, 30, and 60 μM
  antioxidant activity toward ROS generation: significant antioxidant activity
[3]; serum-free media, 7.5, 15, and 30 μM
  antioxidant activity toward ROS generation: exhibited antioxidant activity
fibroblasts; MTT method
  stimulation of cell proliferation compared to untreated controls: 30%
fibroblasts; four-day incubation period
  lowest concentration giving dose-dependent fibroblast proliferation: 2 µM
Skin fibroblasts [4]
  effect on cell viability: without affecting cell viability
Fibroblast COX-2 enzymes
  anti-inflammatory effect, COX-2 inhibition: inhibition of fibroblast COX-2 enzymes
[5]
  suppression of iNOS, native state: suppressed iNOS
[5]; activated by 5 μM t-BHP
  suppression of iNOS gene expression activity, activated state: able to suppress iNOS gene expression activity

Source: US20050176804A1, “Method and material for free radical scavenging in human tissue” (priority 2003, published 2005)
